In patent publication US9340477B2, “Process for production of hydroxystilbene derivative having physiological activity” (UHA MIKAKUTO CO., LTD., priority 2010, dated 2016):

Legend:
[1] = target: rat intestine derived lipase; test: Lipase inhibitory action test (Lipase kit S); assay type: biochemical; conditions: rat intestine acetone powder lipase, 30° C., 10 minutes reaction
Description: In order to see the inhibitory action to lipase of the hydroxystilbene derivative, an inhibitory action test using rat intestine derived lipase was performed.
As lipase, one obtained by suspending 100 mg of rat derived intestine acetone powder (manufactured by Sigma-Aldrich Japan) in 1 mL of 100 mM citric acid buffer (pH 6.0), stirred at 4° C. for 1 hour, centrifuging the same (at 15000 rpm for 45 minutes at 4° C.), and then diluting the supernatant by 1500 times was used as a lipase solution.
As samples, p-coumaric acid, caffeic acid, sinapic acid, resveratrol, and the UHA1027, the UHA1028, and the UHA9021 which were already purified were used. With respect to the preparation of the samples, each compound was dissolved in DMSO, and then prepared in such a manner as to achieve 0.1 mM, 0.5 mM, 1 mM, 2 mM, and 4 mM.
For measuring the activity, a “Lipase kit S” (Trade name, manufactured by Dainippon Pharmaceutical Co., Ltd.) was used. First, in accordance with a preparation method described in the catalog of the Lipase kit S, a color developing liquid was prepared. Reaction liquids in which 70 μl of the color developing liquid, 2 μl of an esterase inhibitor, 10 μl of the lipase solution, and 10 μl of the samples (Final concentration: 10 μM, 50 μM, 100 μM, 200 μM, 400 μM, and 1000 μM) were mixed were prepared, preincubated at 30° C. for 5 minutes, and then 8 μl of a substrate solution described in the catalog was added. Then, a reaction was started. After reacting for 10 minutes, 150 μl of a reaction stop liquid prepared in accordance with the preparation method described in the catalog of the Lipase kit S was added to stop the reaction. The resultant substance was subjected to a measurement of absorbancy at a wavelength of 415 nm. A reaction liquid to which only DMSO as the solvent of the sample was added was used as a positive control and one to which 10 μl of 100 mM citric acid buffer (pH 6.0) was added instead of the lipase solution was used as a negative control. From the relationship between the lipase inhibition rate calculated based on the data obtained therefrom and the concentration of each compound, the concentration IC50 at which the lipase activity is inhibited by 50% was calculated.

[2] = Physicochemical properties: solubility in solvents
[3] = tested on: SCC-4 cells (human oral cancer cells, ATCC); test: Cancer cell growth suppressing action using SCC-4 oral cancer cells (Cell counting kit-8); assay type: cell-based; conditions: 6.3-100 μM, Cell counting kit-8, DMSO negative control, read-out: Cell growth suppressing ability (IC50)
Description: Next, in order to see the effect of the hydroxystilbene derivative to oral cancer cells, cancer cell growth suppressing action using SCC-4 cells (human oral cancer cells, ATCC) was tested.
For culturing the SCC-4 cells, a DMEM/F-12 (1:1) culture medium (manufactured by GIBCO) containing 400 ng/mL hydrocortisone (manufactured by Sigma-Aldrich Japan), 1% antibiotic-antimycotic (manufactured by GIBCO), and 10% FBS (Foetal Bovine Serum, manufactured by ATCC) was used. For the test, a collagen I coat 96 well plate for cell culture (manufactured by Japan BD) was used, and SCC-4 cells whose number of cells was adjusted to be 5×10^5 cells/mL were seeded at 100 μL per well. The cells were cultured under the conditions of 37° C. and 5% CO2 for 24 hours, and were used for the test in a confluent state of 80% or higher.
As samples, p-coumaric acid, ferulic acid, caffeic acid, sinapic acid, resveratrol, pterostilbene, piceatannol, and the UHA1027, the UHA1028, the UHA1123, the UHA1124, the UHA1125, the UHA7032, the UHA7033, the UHA7034, and the UHA9021 which were already purified were used. With respect to the preparation of the samples, each compound was dissolved in DMSO, and then prepared in such a manner as to achieve 0.63 mM, 1.25 mM, 2.5 mM, 5 mM, and 10 mM. The samples were added in such a manner that the final concentration in the SCC-4 cell culture solution was 6.3 μM, 12.5 μM, 25 μM, 50 μM, and 100 μM. Then, the test was started. A sample to which an equivalent amount of only DMSO as the solvent was added was used as a negative control.
The number of viable cells was quantified by an MTT method using a “Cell counting kit-8” in the same manner as in Example 15, and the concentration IC50 at which the cell growth is suppressed by 50% was calculated.

[4] = tested on: HL-60 cells (human promyelocytic leokemia cells); test: Cancer cell growth suppressing action using HL-60 cells (Cell counting kit-8); assay type: cell-based; conditions: 24 hours, 6.3-100 μM, viable cells vs DMSO only, read-out: Cell growth suppressing ability to HL-60 (IC50)
Description: Next, in order to see the effect of the hydroxystilbene derivative to cancer cells, cancer cell growth suppressing action using HL-60 cells (human promyelocytic leokemia cells) was tested.
For culturing the HL-60 cells, an enriched culture medium “RPMI-1640” (manufactured by Sigma-Aldrich Japan) containing 4 mM glutamine (L-Glutamine, manufactured by Sigma-Aldrich Japan) and 10% FBS (Foetal Bovine Serum, manufactured by Biological Industries) was used. For the test, a 96-well plate for cell culture (manufactured by Corning Japan) was used, and the HL-60 cells whose number of cells was adjusted to be 5×10^5 cells/mL were seeded at 100 μL per well
As samples, p-coumaric acid, ferulic acid, caffeic acid, sinapic acid, resveratrol, pterostilbene, and the UHA1027, the UHA1028, the UHA1123, the UHA1124, the UHA1125, the UHA7032, the UHA7033, and the UHA9021 which were already purified were used. With respect to the preparation of the samples, each compound was dissolved in DMSO (Wako Pure Chemical Industries, Ltd.), and then adjusted in such a manner that the final concentration in the HL-60 cell culture solutions was 6.3 μM, 12.5 μM, 25 μM, 50 μM, and 100 μM. Then, the test was started.
The number of viable cells was quantified by an MTT method using a “Cell counting kit-8” (manufactured by DOJINDO LABORATORIES). 24 hours after starting the test, 10 μL of a Cell counting kit-8 solution was added to each well, and then sufficiently stirred. After a shading reaction for 1 hour, the absorbancy was measured at a measurement wavelength of 450 nm using a plate leader (Biorad Laboratories, Inc., “BIO-RAD Model 680”). Then, the cell viability was calculated based on the obtained data. The cell viability is a value obtained by setting the number of viable cells of the culture liquid to which only DMSO as a solvent was added to 100%, and then calculating the number of viable cells under the concentration of each compound as a relative value. From the relationship between the concentration of each compound and the cell viability, the concentration IC50 (50% inhibition concentration) at which the cell growth is suppressed by 50% was calculated.

IC50 [1] [µM] | Solubility: DMSO [2] | Solubility: Chloroform [2] | Solubility: Ethanol [2] | Solubility: Ethyl acetate [2] | Solubility: Methanol [2] | Solubility: Water [2] | IC50 [3] [µM] | IC50 [4] [µM] | SMILES
510 | Soluble | Soluble | Soluble | Soluble | Soluble | Poorly soluble | 17.6 | 14.1 | COc1cc(C(C)c2c(O)cc(/C=C/c3ccc(O)cc3)cc2O)cc(OC)c1O (stereo not shown) [UHA1028]
– | – | – | – | – | – | – | > 100 | > 100 | COc1cc(/C=C/C(=O)O)ccc1O [Ferulic acid, ferulic acid, reference compound]
– | Soluble | Soluble | Soluble | Soluble | Soluble | Poorly soluble | 41.7 | 35.5 | COc1cc(/C=C/c2ccc(O)cc2)cc(OC)c1C(C)c1ccc(O)cc1 (stereo not shown) [UHA7033]
> 1000 | – | – | – | – | – | – | > 100 | > 100 | O=C(O)/C=C/c1ccc(O)c(O)c1 [Coffeic acid, caffeic acid, reference compound]
> 1000 | – | – | – | – | – | – | > 100 | > 100 | O=C(O)/C=C/c1ccc(O)cc1 [p-coumaric acid, reference compound]
– | – | – | – | – | – | – | 73.9 | 60.4 | COc1cc(/C=C/c2ccc(O)cc2)cc(OC)c1 [Pterostilbene, pterostilbene, reference compound]
> 1000 | – | – | – | – | – | – | > 100 | > 100 | COc1cc(/C=C/C(=O)O)cc(OC)c1O [Sinapic acid, sinapic acid, reference compound]
> 1000 | – | – | – | – | – | – | > 100 | 76.5 | Oc1ccc(C=Cc2cc(O)cc(O)c2)cc1 [Resveratrol, resveratrol, reference compound]

The remaining lines, values behind:

SMILES | IC50 [1] [µM] | Solubility: DMSO [2] | Solubility: Chloroform [2] | Solubility: Ethanol [2] | Solubility: Ethyl acetate [2] | Solubility: Methanol [2] | Solubility: Water [2] | IC50 [3] [µM] | IC50 [4] [µM]
CC(c1ccc(O)c(O)c1)c1c(O)cc(/C=C/c2ccc(O)cc2)cc1O (single isomer, unassigned) [UHA1027] | 452 | Soluble | Soluble | Soluble | Soluble | Soluble | Poorly soluble | 28.9 | 5.9
COc1cc(C(C)c2c(O)cc(O)cc2/C=C/c2ccc(O)cc2)ccc1O (stereo not shown) [UHA1124] | – | Soluble | Soluble | Soluble | Soluble | Soluble | Poorly soluble | 17.4 | 14.4
COc1cc(C(C)c2c(O)cc(/C=C/c3ccc(O)cc3)c(C(C)c3ccc(O)c(OC)c3)c2O)ccc1O (stereo not shown) [UHA1125] | – | Soluble | Soluble | Soluble | Soluble | Soluble | Poorly soluble | 26.1 | 13.4
Oc1cc(O)cc(/C=C/c2ccc(O)c(O)c2)c1 [Piceatannol, piceatannol, reference compound] | – | – | – | – | – | – | – | > 100 | –
COc1cc(C(C)c2c(O)cc(/C=C/c3ccc(O)cc3)cc2O)ccc1O (stereo not shown) [UHA1123] | – | Soluble | Soluble | Soluble | Soluble | Soluble | Poorly soluble | 50.3 | 31.5
CC(c1ccc(O)cc1)c1c(O)cc(/C=C/c2ccc(O)c(O)c2)cc1O (single isomer, unassigned) [UHA7034] | – | Soluble | Soluble | Soluble | Soluble | Soluble | Poorly soluble | 49.6 | –
COc1cc(/C=C/c2ccc(O)cc2)c(C(C)c2ccc(O)cc2)c(OC)c1 (stereo not shown) [UHA7032] | – | Soluble | Soluble | Soluble | Soluble | Soluble | Poorly soluble | 37 | 31
CC(c1ccc(O)cc1)c1c(O)cc(/C=C/c2ccc(O)cc2)cc1O (single isomer, unassigned) [UHA9021] | 331 | Soluble | Soluble | Soluble | Soluble | Soluble | Poorly soluble | 38.2 | 43.4
